Measurements published in patent US9340500B2, “Aromatic heterocyclic derivative having TRPV4-inhibiting activity” (SHIONOGI & CO., LTD., priority 2011, dated 2016).

molecular target: T1, human TRPV4 (Homo sapiens (Human), UniProt Q9HBA0); test: Test Example 1: measurement of TRPV4 inhibitory activity (Fluo 4-AM, FLIPR TETRA, 4α-PDD 1 μmol/L); assay type: cell-based; settings: hTRPV4/CHO cells, 4α-PDD 1 μmol/L
Summary of the method: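 CHO-K1 cells stably expressing human TRPV4, Fluo-4-loaded, pre-incubated 5 min with compound (10 points, 3-fold, 10 μmol/L to 0.5 nmol/L) before 1 μmol/L 4α-PDD; FLIPR max-min fluorescence over 5 min, normalised to 20 μM Ruthenium Red. IC50 by logistic fit; Ki from IC50 using 4α-PDD EC50.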

T1 sequence (Q9HBA0 whole entry): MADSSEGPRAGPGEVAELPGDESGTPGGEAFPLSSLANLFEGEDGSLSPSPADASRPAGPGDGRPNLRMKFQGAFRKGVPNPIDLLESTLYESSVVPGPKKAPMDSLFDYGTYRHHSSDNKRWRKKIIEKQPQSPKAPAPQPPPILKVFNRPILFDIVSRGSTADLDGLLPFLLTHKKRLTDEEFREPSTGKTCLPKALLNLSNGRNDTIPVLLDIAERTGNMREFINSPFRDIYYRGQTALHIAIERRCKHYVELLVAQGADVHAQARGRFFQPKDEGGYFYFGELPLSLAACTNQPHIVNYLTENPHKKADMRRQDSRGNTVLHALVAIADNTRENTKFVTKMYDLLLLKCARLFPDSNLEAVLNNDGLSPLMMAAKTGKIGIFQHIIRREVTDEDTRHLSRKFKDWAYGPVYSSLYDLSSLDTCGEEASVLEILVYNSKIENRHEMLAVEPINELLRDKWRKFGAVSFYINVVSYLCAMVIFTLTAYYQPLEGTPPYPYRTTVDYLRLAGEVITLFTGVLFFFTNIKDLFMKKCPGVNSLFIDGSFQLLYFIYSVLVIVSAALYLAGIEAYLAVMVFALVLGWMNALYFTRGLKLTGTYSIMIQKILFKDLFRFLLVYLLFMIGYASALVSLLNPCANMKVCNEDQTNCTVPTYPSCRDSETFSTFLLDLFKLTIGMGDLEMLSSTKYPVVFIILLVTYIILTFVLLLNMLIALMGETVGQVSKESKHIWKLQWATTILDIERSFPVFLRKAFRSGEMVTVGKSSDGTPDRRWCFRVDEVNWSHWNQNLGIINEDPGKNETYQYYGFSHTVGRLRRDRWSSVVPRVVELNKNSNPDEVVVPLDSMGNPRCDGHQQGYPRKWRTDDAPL

Question: Which IC50 does the source give for Cc1c(C(=O)Nc2cccc(C(F)(F)F)c2)ccn1CCCN1CCOCC1 [Compound I-007] here?
Answer: Its IC50 is 8900 nM.

Question: Which IC50 does the source give for Cc1c(C(=O)Nc2cccc(C(F)(F)F)c2)cc(-c2ccccc2)n1CCCN(C)C [Compound I-018] here?
Answer: Its IC50 is 330 nM.

Question: Cc1c(C(=O)Nc2cccc(C(F)(F)F)c2)cc(-c2ccccc2)n1CCCNS(C)(=O)=O [Compound I-026] was tested. Which IC50 did it give?
Answer: The IC50 was 860 nM.

molecular target: T1, human TRPV4; test: Test Example 3: measurement of TRPV4 inhibitory activity (Fluo-3, FDSS 3000, 4α-PDD); assay type: cell-based; settings: hTRPV4/CHO cells, calculated from IC50 and 4α-PDD EC50
Summary of the method: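 Fluo-3-loaded CHO-K1 cells stably expressing TRPV4 in HEPES/probenecid Hanks buffer pH 7.4; compound added, then 4α-PDD, Ca2+ fluorescence (Ex 480/Em 540 nm) read 8 min. Max-Min normalized to 10 μM Ruthenium Red (100%) and vehicle; IC50 from 10-point 3-fold series converted to Ki using 4α-PDD EC50 and concentration.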

Question: How did the Ki turn out when Cc1c(C(=O)Nc2cccc(C(F)(F)F)c2)ccn1CCCN1CCOCC1 [Compound I-007] was run?
Answer: Its Ki is 1450 nM.

Question: With Cc1c(C(=O)Nc2cccc(C(F)(F)F)c2)cc(-c2ccccc2)n1CCCN(C)C [Compound I-018] as the compound, how does the Ki read?
Answer: The Ki was 169 nM.

Question: Cc1c(C(=O)Nc2cccc(C(F)(F)F)c2)cc(-c2ccccc2)n1CCCNS(C)(=O)=O [Compound I-026] was tested. Which Ki did it give?
Answer: The Ki was 427 nM.
